# Source: ChEMBL document CHEMBL3885861, “Open TG-GATES”
# Organism: Rattus norvegicus
# Assay: Open TG-GATES - Regimen: Daily Repeat
# Type: toxicity, organism-based, Sprague-Dawley
# Design: regimen Daily Repeat, gender Male, age 6 weeks
# Conditions: in vivo, po, route gavage; for Bas / Eos / Fbg / Hb / Ht / MCV / Mono / Neu / Plat / RBC / Ret / WBC / MCHC: tissue Blood; for KIDNEY_L / KIDNEY_R / KIDNEY_TOTAL: tissue Kidney; for LIVER: tissue Liver; for ALP / AST / BUN / CRE / DBIL / GLC / IP / K / LDH / Na / PL / RALB / TBIL / TC / TG / TP / gamma-GTP: tissue Plasma
# [1] = 60 mg/kg, 72 h, dose level Middle, time 3 day
# [2] = 60 mg/kg, […], dose level Middle, time 7 day
# [3] = 60 mg/kg, […], dose level Middle, time 14 day
# [4] = 60 mg/kg, […], dose level Middle, time 28 day
# [5] = 200 mg/kg, 72 h, dose level High, time 3 day
# [6] = 200 mg/kg, […], dose level High, time 7 day
# [7] = 200 mg/kg, […], dose level High, time 14 day
# [8] = 200 mg/kg, […], dose level High, time 28 day
compound,measurement,setting,value
CO[C@H]1/C=C/O[C@@]2(C)Oc3c(C)c(O)c4c(O)c(c(/C=N/N5CCN(C)CC5)c(O)c4c3C2=O)NC(=O)/C(C)=C\C=C\[C@H](C)[C@H](O)[C@@H](C)[C@@H](O)[C@@H](C)[C@H](OC(C)=O)[C@@H]1C [RIFAMPIN],TERMINAL_BW,[1],238.2 g
same,Bas,[1],0%
same,Eos,[1],1%
same,Fbg,[1],236.6 mg/dL
same,Hb,[1],13.8 g/dL
same,Ht,[1],41.4%
same,MCV,[1],62.9 fL
same,Mono,[1],5.8%
same,Neu,[1],7.4%
same,Plat,[1],118.3 x10_4/uL
same,RBC,[1],658.2 x10_4/ul
same,Ret,[1],5.7%
same,KIDNEY_L,[1],1 g
same,KIDNEY_R,[1],1 g
same,KIDNEY_TOTAL,[1],2 g
same,LIVER,[1],11.3 g
same,ALP,[1],841.6 IU/L
same,AST,[1],60.4 IU/L
same,BUN,[1],19 mg/dL
same,CRE,[1],0.6 mg/dL
same,DBIL,[1],0.02 mg/dL
same,GLC,[1],189 mg/dL
same,IP,[1],9 mg/dL
same,K,[1],4.7 meq/L
same,LDH,[1],98.8 IU/L
same,Na,[1],139.2 meq/L
same,PL,[1],135.4 mg/dL
same,RALB,[1],3.6 g/dL
same,TBIL,[1],0.4 mg/dL
same,TC,[1],83 mg/dL
same,TG,[1],71 mg/dL
same,TP,[1],5.7 g/dL
same,gamma-GTP,[1],1 IU/L
same,TERMINAL_BW,[2],259.9 g
same,TERMINAL_BW,[3],298.5 g
same,TERMINAL_BW,[4],379.8 g
same,Bas,[2],0%
same,Eos,[2],0.6%
same,Fbg,[2],239.6 mg/dL
same,Hb,[2],14.1 g/dL
same,Ht,[2],42.6%
same,MCV,[2],62.5 fL
same,Mono,[2],5.2%
same,Neu,[2],7%
same,Plat,[2],107 x10_4/uL
same,RBC,[2],683.2 x10_4/ul
same,Ret,[2],5.7%
same,WBC,[2],130.9 x10_2/uL
same,Bas,[3],0%
same,Eos,[3],0.6%
same,Fbg,[3],226.6 mg/dL
same,Hb,[3],15.2 g/dL
same,Ht,[3],44.9%
same,MCHC,[3],33.8%
same,MCV,[3],60.6 fL
same,Mono,[3],3.2%
same,Neu,[3],3.4%
same,Plat,[3],115.2 x10_4/uL
same,RBC,[3],742.6 x10_4/ul
same,Ret,[3],3.5%
same,WBC,[3],161.2 x10_2/uL
same,Bas,[4],0%
same,Eos,[4],1%
same,Fbg,[4],226.4 mg/dL
same,Hb,[4],15.2 g/dL
same,Ht,[4],44.9%
same,MCHC,[4],33.8%
same,MCV,[4],55.8 fL
same,Mono,[4],3.4%
same,Neu,[4],9.6%
same,Plat,[4],117.9 x10_4/uL
same,RBC,[4],803.6 x10_4/ul
same,Ret,[4],2.3%
same,WBC,[4],138.4 x10_2/uL
same,KIDNEY_L,[2],1.1 g
same,KIDNEY_R,[2],1.1 g
same,KIDNEY_TOTAL,[2],2.2 g
same,KIDNEY_L,[3],1.1 g
same,KIDNEY_R,[3],1.2 g
same,KIDNEY_TOTAL,[3],2.3 g
same,KIDNEY_L,[4],1.3 g
same,KIDNEY_R,[4],1.3 g
same,KIDNEY_TOTAL,[4],2.7 g
same,LIVER,[2],11.6 g
same,LIVER,[3],12.9 g
same,LIVER,[4],14.8 g
same,ALP,[2],813.8 IU/L
same,AST,[2],64.6 IU/L
same,BUN,[2],16.8 mg/dL
same,CRE,[2],0.5 mg/dL
same,DBIL,[2],0.032 mg/dL
same,GLC,[2],193.6 mg/dL
same,IP,[2],8 mg/dL
same,K,[2],5 meq/L
same,LDH,[2],89.4 IU/L
same,Na,[2],139.2 meq/L
same,PL,[2],145.4 mg/dL
same,RALB,[2],3.9 g/dL
same,TBIL,[2],0.3 mg/dL
same,TC,[2],80.4 mg/dL
same,TG,[2],90.6 mg/dL
same,TP,[2],6 g/dL
same,gamma-GTP,[2],2.4 IU/L
same,ALP,[3],779.4 IU/L
same,AST,[3],58.6 IU/L
same,BUN,[3],18.2 mg/dL
same,CRE,[3],0.5 mg/dL
same,DBIL,[3],0.044 mg/dL
same,GLC,[3],193.4 mg/dL
same,IP,[3],7.7 mg/dL
same,K,[3],5.2 meq/L
same,LDH,[3],70.8 IU/L
same,Na,[3],139.8 meq/L
same,PL,[3],160.8 mg/dL
same,RALB,[3],3.9 g/dL
same,TBIL,[3],0.3 mg/dL
same,TC,[3],83.6 mg/dL
same,TG,[3],116.6 mg/dL
same,TP,[3],6.1 g/dL
same,gamma-GTP,[3],1.2 IU/L
same,ALP,[4],610.4 IU/L
same,AST,[4],55.6 IU/L
same,BUN,[4],18.4 mg/dL
same,CRE,[4],0.6 mg/dL
same,DBIL,[4],0.038 mg/dL
same,GLC,[4],185 mg/dL
same,IP,[4],7 mg/dL
same,K,[4],4.4 meq/L
same,LDH,[4],76.2 IU/L
same,Na,[4],140.6 meq/L
same,PL,[4],159.6 mg/dL
same,RALB,[4],4 g/dL
same,TBIL,[4],0.3 mg/dL
same,TC,[4],81.6 mg/dL
same,TG,[4],132 mg/dL
same,TP,[4],6.2 g/dL
same,gamma-GTP,[4],1.2 IU/L
same,TERMINAL_BW,[5],223.8 g
same,Bas,[5],0%
same,Eos,[5],1%
same,Fbg,[5],229 mg/dL
same,Hb,[5],14.3 g/dL
same,Ht,[5],43.3%
same,MCHC,[5],33.1%
same,MCV,[5],63.4 fL
same,Mono,[5],5%
same,Neu,[5],2.6%
same,Plat,[5],122.5 x10_4/uL
same,RBC,[5],684 x10_4/ul
same,Ret,[5],3.9%
same,WBC,[5],123.3 x10_2/uL
same,KIDNEY_L,[5],1 g
same,KIDNEY_R,[5],1 g
same,KIDNEY_TOTAL,[5],2.1 g
same,LIVER,[5],10.2 g
same,ALP,[5],864.8 IU/L
same,AST,[5],61.8 IU/L
same,BUN,[5],15.8 mg/dL
same,CRE,[5],0.5 mg/dL
same,DBIL,[5],0.1 mg/dL
same,GLC,[5],189 mg/dL
same,IP,[5],8.8 mg/dL
same,K,[5],5.1 meq/L
same,LDH,[5],204.6 IU/L
same,Na,[5],138.8 meq/L
same,PL,[5],108 mg/dL
same,RALB,[5],3.7 g/dL
same,TBIL,[5],0.6 mg/dL
same,TC,[5],67 mg/dL
same,TG,[5],48.2 mg/dL
same,TP,[5],6 g/dL
same,gamma-GTP,[5],1.2 IU/L
same,TERMINAL_BW,[6],249 g
same,TERMINAL_BW,[7],298.6 g
same,TERMINAL_BW,[8],356.4 g
same,Bas,[6],0%
same,Eos,[6],0.4%
same,Fbg,[6],226.8 mg/dL
same,Hb,[6],13.8 g/dL
same,Ht,[6],41.1%
same,MCHC,[6],33.5%
same,MCV,[6],62.9 fL
same,Mono,[6],6.4%
same,Neu,[6],7.4%
same,Plat,[6],106.5 x10_4/uL
same,RBC,[6],653.6 x10_4/ul
same,Ret,[6],4.7%
same,WBC,[6],165.2 x10_2/uL
same,Bas,[7],0%
same,Eos,[7],0.2%
same,Fbg,[7],222.4 mg/dL
same,Hb,[7],13.9 g/dL
same,Ht,[7],41.2%
same,MCHC,[7],33.7%
same,MCV,[7],58.7 fL
same,Mono,[7],3.4%
same,Neu,[7],4.8%
same,Plat,[7],114.3 x10_4/uL
same,RBC,[7],702.8 x10_4/ul
same,Ret,[7],4.2%
same,WBC,[7],185.6 x10_2/uL
same,Bas,[8],0%
same,Eos,[8],0.6%
same,Fbg,[8],214.4 mg/dL
same,Hb,[8],14 g/dL
same,Ht,[8],42.2%
same,MCHC,[8],33.1%
same,MCV,[8],53.7 fL
same,Mono,[8],5.4%
same,Neu,[8],8.8%
same,Plat,[8],111.8 x10_4/uL
same,RBC,[8],786.6 x10_4/ul
same,Ret,[8],2.4%
same,WBC,[8],116.3 x10_2/uL
same,KIDNEY_L,[6],1 g
same,KIDNEY_R,[6],1 g
same,KIDNEY_TOTAL,[6],2 g
same,KIDNEY_L,[7],1.2 g
same,KIDNEY_R,[7],1.2 g
same,KIDNEY_TOTAL,[7],2.4 g
same,KIDNEY_L,[8],1.3 g
same,KIDNEY_R,[8],1.3 g
same,KIDNEY_TOTAL,[8],2.6 g
same,LIVER,[6],12.2 g
same,LIVER,[7],13.9 g
same,LIVER,[8],16.8 g
same,ALP,[6],976.6 IU/L
same,AST,[6],62.2 IU/L
same,BUN,[6],17.4 mg/dL
same,CRE,[6],0.5 mg/dL
same,DBIL,[6],0.2 mg/dL
same,GLC,[6],181.2 mg/dL
same,IP,[6],9 mg/dL
same,K,[6],4.9 meq/L
same,LDH,[6],158.4 IU/L
same,Na,[6],139.8 meq/L
same,PL,[6],139.6 mg/dL
same,RALB,[6],3.9 g/dL
same,TBIL,[6],0.5 mg/dL
same,TC,[6],74.8 mg/dL
same,TG,[6],75.8 mg/dL
same,TP,[6],6.2 g/dL
same,gamma-GTP,[6],1.8 IU/L
same,ALP,[7],781 IU/L
same,AST,[7],60.2 IU/L
same,CRE,[7],0.5 mg/dL
same,DBIL,[7],0.2 mg/dL
same,GLC,[7],182.2 mg/dL
same,IP,[7],8.3 mg/dL
same,K,[7],4.9 meq/L
same,LDH,[7],163.8 IU/L
same,Na,[7],140.8 meq/L
same,PL,[7],144.8 mg/dL
same,RALB,[7],4.1 g/dL
same,TBIL,[7],0.4 mg/dL
same,TC,[7],82.2 mg/dL
same,TG,[7],73 mg/dL
same,TP,[7],6.1 g/dL
same,gamma-GTP,[7],1.8 IU/L
same,ALP,[8],771 IU/L
same,AST,[8],54.8 IU/L
same,BUN,[8],19.2 mg/dL
same,CRE,[8],0.5 mg/dL
same,DBIL,[8],0.3 mg/dL
same,GLC,[8],185.4 mg/dL
same,K,[8],4.4 meq/L
same,LDH,[8],160.6 IU/L
same,Na,[8],141.2 meq/L
same,PL,[8],134 mg/dL
same,RALB,[8],4.1 g/dL
same,TBIL,[8],0.6 mg/dL
same,TC,[8],76 mg/dL
same,TG,[8],75.4 mg/dL
same,TP,[8],6.3 g/dL
same,gamma-GTP,[8],0.8 IU/L
